One test addresses T1, Adenylate kinase 1 (AK1) (Homo sapiens, UniProt P00568).
T1 construct: purchased Novus Biologicals NBP1-50855
T1 sequence (P00568 1-194): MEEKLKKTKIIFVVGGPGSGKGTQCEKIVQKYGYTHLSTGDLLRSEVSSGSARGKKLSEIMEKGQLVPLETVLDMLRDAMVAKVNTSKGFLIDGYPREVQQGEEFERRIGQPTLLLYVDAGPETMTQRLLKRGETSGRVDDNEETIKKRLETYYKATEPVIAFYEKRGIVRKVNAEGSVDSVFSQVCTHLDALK
The experiment in a line: Labeling of recombinant AK1 by 2-ad-BAD and nucleotide competition. In kind it is binding. As to conditions: 150 μM competitor, 0.3 μM 2-ad-BAD. The method, then:
FIG. 10. Validation of Adenylate kinase 1 (AK1) as a putative NAD^+/NADH binding protein. […] Recombinant AK1 (500 nM) in 100 mM NaCl, 50 mM HEPES [pH 7.4], 4 mM MgCl2, 0.2 mM TCEP was incubated with 150 μM of indicated competitor molecule for 10 min, followed by 10 min treatment with 0.3 μM 2-ad-BAD. Samples were then subjected to UV light for 5 min, conjugated to TAMRA using Click chemistry, separated by SDS-PAGE and in-gel fluorescence was recorded. […] (FIG. 10B) A differential scanning fluorimetry assay is supportive of NADH as novel AK1 ligand. Recombinant AK1 (0.1 mg/mL) in 100 mM NaCl, 50 mM HEPES, pH 7.4, 4 mM MgCl2, 7.5× SYPRO Orange was tested for thermal stability in the absence or presence of indicated nucleotides at 1 mM. Ordinate reports on the difference of melt peak temperature prompted by indicated treatments. Data are mean±SEM of 3 independent experiments.
(§1) Treatments. Recombinant PARP-1 (250 nM), PARP-10 (250 nM) or AK1 (500 nM; Novus Biologicals) were diluted in 100 mM NaCl, 50 mM HEPES [pH 7.4], 4 mM MgCl2, 0.2 mM TCEP. PARP-1 reactions also contained 10 μg/mL of activated calf thymus DNA (Sigma-Aldrich D4522), unless otherwise noted. In experiments reported in FIG. 2, the samples were treated with 0.1 μM 2-ad-BAD or ad-olaparib for 10 min. In competition experiments reported in FIG. 3 and Figure S3, samples were first treated with 150 μM of indicated nucleotides for 10 minute and then with 0.3 μM 2-ad-BAD for additional 10 min. All treatments occurred at RT. Samples were then kept in the dark or irradiated for 5 min in the RPR-100 Photochemical Reactor (Rayonet) equipped with 350 nm lamps at 4° C.
(§2) Click Chemistry. 25 μL of each sample was mixed with 5 μL of fatty acid free BSA and SDS to give a final Click reaction concentration of 1 mg/mL and 1%, respectively. Click reactions were started by adding 15 μL of PBS based 3× click reaction mix (final 1× concentrations shown): 100 μM Tris[(1-benzyl-1H-1,2,3triazol-4-yl)methyl]amine (TBTA, Click Chemistry Tools), 1 mM CuSO4, 40 μM tetramethylrhodamine (TAMRA)-azide (Click Chemistry Tools), 1 mM Tris(2-carboxyethyl)phosphine hydrochloride (TCEP, Thermo Fisher) and 5% tert-Butyl alcohol to each sample, and let to proceed for 1 h at RT while gently shaking. Reactions were stopped by adding 4× Laemmli sample buffer and boiling at 95° C. for 5 min.
(§3) In gel fluorescence and staining. Samples were loaded to 10 or 12% SDS-polyacrylamide gels and run until the dye front left the gel. In-gel fluorescence was detected with ChemiDoc XRS+ (Biorad) using Rhodamine filter and then the gels were stained with Coomassie blue or Silver using standard protocols.

The next test deals with T2, PARP-10 (Homo sapiens, UniProt Q53GL7).
T2 construct: Full length His6-PARP-1 and His6-SUMO-PARP-10 proteins we expressed and purified; His6 (N); SUMO (N); made in house
T2 sequence (Q53GL7 1-1025): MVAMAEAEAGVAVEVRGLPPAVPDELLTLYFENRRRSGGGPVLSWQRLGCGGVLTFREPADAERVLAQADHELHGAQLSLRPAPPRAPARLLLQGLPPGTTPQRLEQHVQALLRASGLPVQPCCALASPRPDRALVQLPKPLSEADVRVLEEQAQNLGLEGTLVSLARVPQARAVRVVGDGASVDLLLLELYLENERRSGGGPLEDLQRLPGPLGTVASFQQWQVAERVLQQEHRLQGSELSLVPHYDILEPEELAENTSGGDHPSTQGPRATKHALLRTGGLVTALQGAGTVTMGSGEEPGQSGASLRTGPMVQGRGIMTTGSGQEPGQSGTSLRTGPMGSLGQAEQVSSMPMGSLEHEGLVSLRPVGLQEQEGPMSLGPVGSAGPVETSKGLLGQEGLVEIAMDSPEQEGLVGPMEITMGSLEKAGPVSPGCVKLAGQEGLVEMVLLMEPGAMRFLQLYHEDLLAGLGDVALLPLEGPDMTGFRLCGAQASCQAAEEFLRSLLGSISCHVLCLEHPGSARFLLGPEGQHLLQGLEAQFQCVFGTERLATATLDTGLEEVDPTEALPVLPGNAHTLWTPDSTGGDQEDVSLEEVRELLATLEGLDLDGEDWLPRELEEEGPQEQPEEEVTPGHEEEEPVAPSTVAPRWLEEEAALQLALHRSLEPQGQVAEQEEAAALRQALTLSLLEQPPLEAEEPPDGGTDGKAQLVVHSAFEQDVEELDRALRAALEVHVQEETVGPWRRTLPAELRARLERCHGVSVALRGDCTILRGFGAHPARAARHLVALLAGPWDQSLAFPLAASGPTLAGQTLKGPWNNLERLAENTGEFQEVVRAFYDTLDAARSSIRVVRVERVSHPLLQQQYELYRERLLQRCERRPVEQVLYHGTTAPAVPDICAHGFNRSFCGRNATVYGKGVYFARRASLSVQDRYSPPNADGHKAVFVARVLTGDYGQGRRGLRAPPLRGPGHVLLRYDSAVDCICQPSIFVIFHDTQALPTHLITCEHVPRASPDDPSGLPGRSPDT
The experiment in a line: Competition labeling of PARP-10 by 2-ad-BAD. The format is binding.
Excerpt: FIG. 8. Densitometry analyses of FIG. 3A panels (A,B) comparing the inhibitory effect of nucleotides and (B) panels (C,D) comparing inhibitory effect of PARP inhibitors on PARP-1 and PARP-10 labelling by 2-ad-BAD. TAMRA in-gel fluorescence was normalized to Coomassie staining, except for PARP-1 NAD^+ treated samples where relative to control TAMRA signal is reported due to auto-PARylation induced molecular weight shift and therefore not detectable Coomassie signal at PARP-1 molecular weight of ˜110 kDa. Data are mean±SEM of 3 independent experiments.
as §1, §2, §3

Regarding `NC(=O)c1cccc([C@@H]2O[C@H](COP(=O)(O)OP(=O)(O)OC[C@H]3O[C@@H](n4cnc5c(N)ncnc54)[C@H](O)[C@@H]3O)[C@@H](O)[C@H]2O)c1` [BAD, benzamide adenine dinucleotide], the “competition of 2-ad-BAD labeling of recombinant AK1” value at Adenylate kinase 1 (AK1) is “effectively competed”. Also, on PARP-10 (150 μM nucleotide, 0.3 μM 2-ad-BAD), the “block of 2-ad-BAD labeling of PARP-10 by nucleotides” value is “reduced”. For the same compound, on PARP-10 (competitor dose series), the “dose-dependent block of 2-ad-BAD labeling of PARP-10” value is on record as “dose-dependently block the labeling of PARP-10”.

Source of the values: US12441757B2, “Platform for screening NAD+ binding proteins in a cellular context” (OREGON HEALTH & SCIENCE UNIVERSITY, priority 2020, dated 2025).
